Source: ChEMBL document CHEMBL3046782, “Fungicidial Activity of Benthiavalicarb-isopropyl against Phytophthora infestans and Its Controlling Activity against Late Blight Diseases” (J Pestic Sci, 2005)
Values after ≈ are worked out from the molar mass of the structure shown.

Test system: Phytophthora infestans
Experiment: Antifungal activity against phenylamide-resistant Phytophthora infestans 7-1 assessed as inhibition of mycelial growth after 5 to 7 days
Format: functional, organism-based, 07-Jan
Settings: for IC50: Phytophthora infestans, 07-Jan, read-out: I50

Q: Which results are given for CC(C)OC(=O)N[C@H](C(=O)N[C@H](C)c1nc2ccc(F)cc2s1)C(C)C [BENTHIAVALICARB-ISOPROPYL]?
A: MIC: 0.1 µg/mL (≈ 0.262 µM); IC50: 0.04 µg/mL (≈ 0.105 µM)

Q: Which results are given for COCC(=O)N(c1c(C)cccc1C)C(C)C(=O)OC (centres undefined) [METALAXYL]?
A: MIC: >10 µg/mL; IC50: > 10 µg/mL
